| SMILES | melting point [°C] | boiling point [°C] | log10 vapour pressure (mmHg) | log10 Henry constant (atm·m³/mol) | log10 Koa | ready biodegradability | log10 Koc (L/kg) |
| --- | --- | --- | --- | --- | --- | --- | --- |
| Oc1ccccc1C1CCCC1 | 34.5 | – | – | – | – | – | – |
| O=c1c(O)c(-c2ccc(O)c(O)c2)oc2cc(O[C@@H]3O[C@H](CO)[C@@H](O)[C@H](O)[C@H]3O)cc(O)c12 | 248 | – | – | – | – | – | – |
| CCC1(C)CCCC1 | -144 | 122 | – | – | – | – | – |
| CCOC(=O)C1=C(C)NC(C)=C(C(=O)OCC)C1 | 180 | – | – | – | – | – | – |
| Cc1cc(O)c(C)c(O)c1 | 163 | 278 | – | – | – | – | – |
| CCC(CC)C(=O)Cl | – | 140 | – | – | – | – | – |
| O=C(Cl)CCc1ccccc1 | -2 | – | – | – | – | – | – |
| COc1ccccc1OC(C)=O | 31.5 | – | – | – | – | – | – |
| CC#CCO | -2.2 | 148 | – | – | – | – | – |
| C=CCOC | – | 44 | – | – | – | – | – |
| ClCCN(CCCl)c1ccc2ccccc2c1 | 55 | – | – | – | – | – | – |
| CCNC(=O)NCC | 112 | 263 | – | – | – | – | – |
| CC(Cl)=CCl | – | – | 1.96 | – | – | – | – |
| CCC(C)(Cl)CC | – | 116 | – | – | – | – | – |
| COc1c(Cl)c(Cl)c(O)c(Cl)c1Cl | 116 | – | – | – | – | – | – |
| C[Si]1(C)O[Si](C)(C)O[Si](C)(C)O[Si](C)(C)O[Si](C)(C)O1 | -38 | 210 | -0.699 | 1.52 | – | – | – |
| Clc1cc2oc3ccc(Cl)c(Cl)c3c2cc1Cl | 210 | – | -7.74 | – | 9.78 | – | – |
| CCCCCBr | -95 | 130 | 1.1 | – | – | not readily biodegradable | – |
| Cc1cccc(C)c1N(C(=O)CCl)C1CCOC1=O (stereo not drawn) | 146 | – | -6.82 | – | – | – | – |
| Cc1cc(O)cc(Br)c1 | 56.5 | – | – | – | – | – | – |
| C#CC(=O)OCC | – | 120 | – | – | – | – | – |
| CC(=O)O[C@H]1[C@H]2O[C@]23[C@@H]2CC[C@]4(O)C[C@@H](O)CC[C@]4(C)[C@H]2CC[C@]3(C)[C@H]1c1ccc(=O)oc1 | 260 | – | – | – | – | – | – |
| CC(=O)OC1CCCCC1C (stereo not drawn) | – | – | – | – | – | readily biodegradable | – |
| COc1ccc(/C=N/NC(=O)c2ccncc2)cc1OC | 189 | – | – | – | – | – | – |

| SMILES | melting point [°C] | boiling point [°C] | log10 vapour pressure (mmHg) | log10 Henry constant (atm·m³/mol) | log10 Koa | ready biodegradability | log10 Koc (L/kg) |
| --- | --- | --- | --- | --- | --- | --- | --- |
| COC(=O)c1ccccc1OC(C)=O | 51.5 | – | – | – | – | – | – |
| NC(=O)c1ccccc1Cl | 143 | – | – | – | – | – | 1.51 |
| CC(C)C[C@@H](NC(=O)[C@@H](O)[C@H](N)Cc1ccccc1)C(=O)O | 234 | – | – | – | – | – | – |
| Cc1cnc(C)c(C)n1 | – | 172 | – | – | – | – | – |
| Cc1ccc(Cl)c(Cl)c1 | -15.2 | 209 | -0.502 | – | – | – | – |
| O=C1C=CC(=O)C(c2ccccc2)=C1 | 114 | – | – | – | – | – | – |
| CC(=O)O[C@]1(C(C)=O)CC[C@H]2[C@@H]3C[C@H](C)C4=CC(=O)CC[C@]4(C)[C@H]3CC[C@@]21C | 206 | – | – | – | – | – | – |
| CC#CC(=O)OCC | – | 163 | – | – | – | – | – |
| Cc1ccc(C(=O)O)cc1 | 180 | – | -4.29 | – | – | readily biodegradable | 1.77 |
| CCC(N)CC | – | 89 | – | – | – | – | – |
| CC(CCc1ccccc1)NC(C)C(O)c1ccc(O)cc1 (stereo not drawn) | 112 | – | – | – | – | – | – |
| CCCCC[C@H](O)/C=C/[C@H]1[C@H](O)CC(=O)[C@@H]1C/C=C\CCCC(=O)O | 67 | – | – | – | – | – | – |
| CCP(c1ccccc1)c1ccccc1 | – | 293 | – | – | – | – | – |
| CCCO | – | 97.2 | 1.32 | -5.13 | – | readily biodegradable | – |
| Cc1cc(Cl)ccc1[N+](=O)[O-] | 25.5 | – | – | – | – | – | – |
| Nc1ccc(C(=O)O)cc1 | 188 | – | – | – | – | readily biodegradable | 2.5 |
| S=C1NC(=S)C(c2ccccc2)(c2ccccc2)N1 | 263 | – | – | – | – | – | – |
| CCC(CC)(CC)CC | -33.1 | 146 | 0.863 | – | – | – | – |
| Clc1nc(Cl)nc(Nc2ccccc2Cl)n1 | 160 | – | -8.21 | – | – | – | 3 |
| NN1CCCCC1 | – | 147 | – | – | – | – | – |
| Nc1c(F)cc(F)cc1F | 35 | – | – | – | – | – | – |
| O=C(c1ccc(O)c(O)c1)c1c(O)cc(O)cc1O | 222 | – | – | – | – | – | – |
| CCOP(=O)(OCC)SCCSCC | – | – | – | – | – | – | 1.85 |
| CC1=C(O)C(=O)C(C(C)C)CC1 (stereo not drawn) | 83 | – | – | – | – | – | – |

| SMILES | melting point [°C] | boiling point [°C] | log10 vapour pressure (mmHg) | log10 Henry constant (atm·m³/mol) | log10 Koa | ready biodegradability | log10 Koc (L/kg) |
| --- | --- | --- | --- | --- | --- | --- | --- |
| CCC(C)CC(C)C(C)C (stereo not drawn) | – | 161 | – | – | – | – | – |
| Nc1cccc(Oc2ccccc2)c1 | 37 | 315 | – | – | – | – | – |
| Cc1ccc(O)c2ccccc12 | 85.8 | – | – | – | – | – | – |
| C=Cc1ccc(OC)cc1 | – | 205 | – | – | – | – | – |
| O=[N+]([O-])c1cccc(O)c1 | 96.8 | – | – | -8.7 | – | readily biodegradable | – |
| O=S1OC[C@@H]2[C@H](CO1)[C@]1(Cl)C(Cl)=C(Cl)[C@@]2(Cl)C1(Cl)Cl (stereo partly drawn) | – | – | – | – | 8.64 | – | – |
| CCCCCC=CC=O | – | – | – | -4.13 | – | – | – |
| CCN(CC)CCN | – | 144 | – | – | – | – | – |
| Brc1ccncc1 | 0.5 | – | – | – | – | – | – |
| O=C1c2ccccc2C(=O)c2c(Cl)cccc21 | 163 | – | – | – | – | not readily biodegradable | – |
| CCCCCCCC(=O)NO | 78.8 | – | – | – | – | – | – |
| CC(C)(Cl)Br | – | 95 | – | – | – | – | – |
| CCOC(=O)CC(C)C | -99.3 | 135 | 0.919 | – | – | – | – |
| N#CC(Br)(Br)C(N)=O | 124 | – | -3.05 | – | – | not readily biodegradable | – |
| CCC(=O)C1(c2cccc(O)c2)CCN(C)CC1 | 156 | – | – | – | – | – | – |
| CC#CCCCC | – | 112 | – | – | – | – | – |
| Nc1ccc(Cl)cc1[N+](=O)[O-] | 116 | – | – | – | – | not readily biodegradable | – |
| CC(=O)C[C@H](C)O | – | 177 | – | – | – | – | – |
| CC(Cl)C(Cl)(Cl)C=O (stereo not drawn) | – | 164 | – | – | – | – | – |
| Cn1c(=O)cc[nH]c1=O | – | – | -3.15 | – | – | – | – |
| CNC1(c2ccccc2Cl)CCCCC1=O.Cl (stereo not drawn) | 262 | – | – | – | – | – | – |
| CCCNCC | – | 81 | – | – | – | – | – |
| CC(CCl)CCl | – | 136 | – | – | – | – | – |

From the OPERA property sets (Mansouri et al. 2018)
